In patent US20090036492A1, “Novel Cercosporamide Derivative” (priority 2005, published 2009):

Test system: male KK mice
Test: Blood glucose lowering effect in diabetic KK mice
Type: in vivo
Settings: 15 to 20 weeks old, feed containing 0.03% of the compound, three days, blood glucose on the 3rd day vs control group
Excerpt: Six-week-old male KK mice were purchased from CLEA Japan, Inc. and then were fed until 15 to 20 weeks old and affected with diabetes. The mice were individually fed during the adaptation period and the test period, and water and feed (FR2, Funabashi Farm) were freely ingested.
At the start of the experiment, after body weight measurement, blood was collected from the tail vein of the mice into a heparin-coated glass tube and centrifuged, and then plasma was separated. The glucose level in the plasma was measured by Glucoloader GXT (A&T Corp.), and individuals having a blood glucose level of about 350 mg/dl or more were selected. Groups each having 3 to 4 mice were used for the experiment, and the mice were grouped to make the average body weight and the average blood glucose level similar. Each compound was administered to a compound administration group by feeding a mixture with feed containing 0.03% of the compound. A separate group in which the mice were fed only with feed was a control group.
The experiment period (drug administration period) was three days. The grouping day was the 0th day. On the 3rd day, body weight was measured and blood was collected from the tail vein to measure the blood glucose level.
The blood glucose lowering efficacy was determined by the following formula.
Blood glucose lowering efficacy=[(Control group blood glucose level−Compound administration group blood glucose level)/Control group blood glucose level]×100

SMILES	Blood glucose lowering efficacy (%)
COc1cc(O)c2c(c1C(=O)NCc1ccc(Oc3ccccc3Cl)c3ccccc13)OC1=CC(O)=C(C(C)=O)C(=O)[C@]12C [Example 166, (9aS)-8-Acetyl-N-{[4-(2-chlorophenoxy)-1-naphthyl]methyl}-1,7-dihydroxy-3-methoxy-9a-methyl-9-oxo-9,9a-dihydrodibenzo[b,d]furan-4-carboxamide]	47
COc1cc(O)c2c(c1C(=O)NCc1ccc(OCc3ccccc3F)c3ccccc13)OC1=CC(O)=C(C(C)=O)C(=O)[C@]12C [Example 144, (9aS)-8-Acetyl-N-({4-[(2-fluorobenzyl)oxy]-1-naphthyl}methyl)-1,7-dihydroxy-3-methoxy-9a-methyl-9-oxo-9,9a-dihydrodibenzo[b,d]furan-4-carboxamide]	41

Same assay, conditions: Mus musculus, po, 72 h, 15 to 20 weeks old, feed containing 0.03% of the compound, three days, blood glucose on the 3rd day vs control group, read-out: Blood glucose lowering efficacy (%)

SMILES	inhibition in vivo at 0.03 % in feed [%]
CCc1cc(F)c2ccc(C)cc2c1CNC(=O)c1c(OC)cc(O)c2c1OC1=CC(O)=C(C(C)=O)C(=O)[C@]12C [Example 189, (9aS)-8-Acetyl-N-[(2-ethyl-4-fluoro-7-methyl-1-naphthyl)methyl]-1,7-dihydroxy-3-methoxy-9a-methyl-9-oxo-9,9a-dihydrodibenzo[b,d]furan-4-carboxamide]	47
COc1cc(O)c2c(c1C(=O)NCc1ccc(Oc3ccc(Cl)cc3)c3ccccc13)OC1=CC(O)=C(C(C)=O)C(=O)[C@]12C [Example 167, (9aS)-8-Acetyl-N-{[4-(4-chlorophenoxy)-1-naphthyl]methyl}-1,7-dihydroxy-3-methoxy-9a-methyl-9-oxo-9,9a-dihydrodibenzo[b,d]furan-4-carboxamide]	30
CCc1ccc2cccc(F)c2c1CNC(=O)c1c(OC)cc(O)c2c1OC1=CC(O)=C(C(C)=O)C(=O)[C@]12C [Example 192, (9aS)-8-Acetyl-N-[(2-ethyl-8-fluoro-1-naphthyl)methyl]-1,7-dihydroxy-3-methoxy-9a-methyl-9-oxo-9,9a-dihydrodibenzo[b,d]furan-4-carboxamide]	42
COc1cc(O)c2c(c1C(=O)NCc1c(C)ccc3ccccc13)OC1=CC(O)=C(C(C)=O)C(=O)[C@]12C [Example 27, (9aS)-8-Acetyl-1,7-dihydroxy-3-methoxy-9a-methyl-N-[(2-methyl-1-naphthyl)methyl]-9-oxo-9,9a-dihydrodibenzo[b,d]furan-4-carboxamide]	42
CC(=O)C1=C(O)C=C2Oc3c(C(=O)NCc4c(C)ccc5ccccc45)c(OC(F)F)cc(O)c3[C@]2(C)C1=O [Example 86, (9aS)-8-Acetyl-3-(difluoromethoxy)-1,7-dihydroxy-9a-methyl-N-[(2-methyl-1-naphthyl)methyl]-9-oxo-9,9a-dihydrodibenzo[b,d]furan-4-carboxamide]	31
CCc1ccc2ccccc2c1CNC(=O)c1c(OC)cc(O)c2c1OC1=CC(O)=C(C(C)=O)C(=O)[C@]12C [Example 56, (9aS)-8-Acetyl-N-[(2-ethyl-1-naphthyl)methyl]-1,7-dihydroxy-3-methoxy-9a-methyl-9-oxo-9,9a-dihydrodibenzo[b,d]furan-4-carboxamide]	24
CCc1ccc2cc(F)c(F)cc2c1CNC(=O)c1c(OC)cc(O)c2c1OC1=CC(O)=C(C(C)=O)C(=O)[C@]12C [Example 188, (9aS)-8-Acetyl-N-[(2-ethyl-6,7-difluoro-1-naphthyl)methyl]-1,7-dihydroxy-3-methoxy-9a-methyl-9-oxo-9,9a-dihydrodibenzo[b,d]furan-4-carboxamide]	57
COc1cc(O)c2c(c1C(=O)NCc1ccc(OCc3ccc(F)cc3F)c3ccccc13)OC1=CC(O)=C(C(C)=O)C(=O)[C@]12C [Example 146, (9aS)-8-Acetyl-N-({4-[(2,4-difluorobenzyl)oxy]-1-naphthyl}methyl)-1,7-dihydroxy-3-methoxy-9a-methyl-9-oxo-9,9a-dihydrodibenzo[b,d]furan-4-carboxamide]	49
COc1cc(O)c2c(c1C(=O)NCc1c(C)ccc3c(F)cc(F)cc13)OC1=CC(O)=C(C(C)=O)C(=O)[C@]12C [Example 176, (9aS)-8-Acetyl-N-[(5,7-difluoro-2-methyl-1-naphthyl)methyl]-1,7-dihydroxy-3-methoxy-9a-methyl-9-oxo-9,9a-dihydrodibenzo[b,d]furan-4-carboxamide]	40
CC#CCOc1cc(C)c(CNC(=O)c2c(OC)cc(O)c3c2OC2=CC(O)=C(C(C)=O)C(=O)[C@]23C)c(C)c1 [Example 97, (9aS)-8-Acetyl-N-[4-(2-butynyloxy)-2,6-dimethylbenzyl]-1,7-dihydroxy-3-methoxy-9a-methyl-9-oxo-9,9a-dihydrodibenzo[b,d]furan-4-carboxamide]	53
CCc1ccc2ccc(F)cc2c1CNC(=O)c1c(OC)cc(O)c2c1OC1=CC(O)=C(C(C)=O)C(=O)[C@]12C [Example 184, (9aS)-8-Acetyl-N-[(2-ethyl-7-fluoro-1-naphthyl)methyl]-1,7-dihydroxy-3-methoxy-9a-methyl-9-oxo-9,9a-dihydrodibenzo[b,d]furan-4-carboxamide]	37
COc1cc(O)c2c(c1C(=O)NCc1c(C)cc(Cl)c3ccccc13)OC1=CC(O)=C(C(C)=O)C(=O)[C@]12C [Example 178, (9aS)-8-Acetyl-N-[(4-chloro-2-methyl-1-naphthyl)methyl]-1,7-dihydroxy-3-methoxy-9a-methyl-9-oxo-9,9a-dihydrodibenzo[b,d]furan-4-carboxamide]	37
COc1cc(O)c2c(c1C(=O)NCc1ccc(Oc3ccc(Cl)cc3Cl)c3ccccc13)OC1=CC(O)=C(C(C)=O)C(=O)[C@]12C [Example 164, (9aS)-8-Acetyl-N-{[4-(2,4-dichlorophenoxy)-1-naphthyl]methyl}-1,7-dihydroxy-3-methoxy-9a-methyl-9-oxo-9,9a-dihydrodibenzo[b,d]furan-4-carboxamide]	43
COc1cc(O)c2c(c1C(=O)NCc1c(C)ccc3c(F)c(F)c(F)cc13)OC1=CC(O)=C(C(C)=O)C(=O)[C@]12C [Example 190, (9aS)-8-Acetyl-1,7-dihydroxy-3-methoxy-9a-methyl-9-oxo-N-[(5,6,7-trifluoro-2-methyl-1-naphthyl)methyl]-9,9a-dihydrodibenzo[b,d]furan-4-carboxamide]	58
CCc1ccc2c(F)cc(C)cc2c1CNC(=O)c1c(OC)cc(O)c2c1OC1=CC(O)=C(C(C)=O)C(=O)[C@]12C [Example 195, (9aS)-8-Acetyl-N-[(2-ethyl-5-fluoro-7-methyl-1-naphthyl)methyl]-1,7-dihydroxy-3-methoxy-9a-methyl-9-oxo-9,9a-dihydrodibenzo[b,d]furan-4-carboxamide]	36
COc1cc(O)c2c(c1C(=O)NCc1c(C)ccc3c(F)cccc13)OC1=CC(O)=C(C(C)=O)C(=O)[C@]12C [Example 183, (9aS)-8-Acetyl-N-[(5-fluoro-2-methyl-1-naphthyl)methyl]-1,7-dihydroxy-3-methoxy-9a-methyl-9-oxo-9,9a-dihydrodibenzo[b,d]furan-4-carboxamide]	38
COc1cc(O)c2c(c1C(=O)NCc1c(C)cc(Br)c3ccccc13)OC1=CC(O)=C(C(C)=O)C(=O)[C@]12C [Example 177, (9aS)-8-Acetyl-N-[(4-bromo-2-methyl-1-naphthyl)methyl]-1,7-dihydroxy-3-methoxy-9a-methyl-9-oxo-9,9a-dihydrodibenzo[b,d]furan-4-carboxamide]	43
COc1cc(O)c2c(c1C(=O)NCc1ccc(OCc3ccc(F)cc3)c3ccccc13)OC1=CC(O)=C(C(C)=O)C(=O)[C@]12C [Example 106, (9aS)-8-Acetyl-N-({4-[(4-fluorobenzyl)oxy]-1-naphthyl}methyl)-1,7-dihydroxy-3-methoxy-9a-methyl-9-oxo-9,9a-dihydrodibenzo[b,d]furan-4-carboxamide]	51
COc1cc(O)c2c(c1C(=O)NCc1c(C)cc(C)c3ccccc13)OC1=CC(O)=C(C(C)=O)C(=O)[C@]12C [Example 171, (9aS)-8-Acetyl-1,7-dihydroxy-3-methoxy-9a-methyl-N-[(2,4-dimethyl-1-naphthyl)methyl]-9-oxo-9,9a-dihydrodibenzo[b,d]furan-4-carboxamide]	47
CCC#CCOc1cc(C)c(CNC(=O)c2c(OC)cc(O)c3c2OC2=CC(O)=C(C(C)=O)C(=O)[C@]23C)c(C)c1 [Example 101, (9aS)-8-Acetyl-N-[2,6-dimethyl-4-(2-pentynyloxy)benzyl]-1,7-dihydroxy-3-methoxy-9a-methyl-9-oxo-9,9a-dihydrodibenzo[b,d]furan-4-carboxamide]	47
CCCc1c(C)cc(C)c(C)c1CNC(=O)c1c(OC)cc(O)c2c1OC1=CC(O)=C(C(C)=O)C(=O)[C@]12C [Example 94, (9aS)-8-Acetyl-1,7-dihydroxy-3-methoxy-9a-methyl-9-oxo-N-(2,3,5-trimethyl-6-propylbenzyl)-9,9a-dihydrodibenzo[b,d]furan-4-carboxamide]	44
COc1cc(O)c2c(c1C(=O)NCc1c(C)c(C)cc(C)c1C)OC1=CC(O)=C(C(C)=O)C(=O)[C@]12C [Example 36, (9aS)-8-Acetyl-1,7-dihydroxy-3-methoxy-9a-methyl-9-oxo-N-(2,3,5,6-tetramethylbenzyl)-9,9a-dihydrodibenzo[b,d]furan-4-carboxamide]	36
